Test results published in patent US20220372162A1, “PCT/US2020/066088” (TeneoFour, Inc., priority 2019, published 2022).
“Also recorded” adds a separate entry of the source.

Assays:
[1] = test system: sirtuin activity in CD38 positive Ramos cells; assay: Sirtuin activity assay (SIRT-GLO) in CD38 positive Ramos cells; format: cell-based; settings: 24 h
From the text: To quantify sirtuin activity, Promega's one-step SIRT-GLO™ assay was used. The reagent formulation contains an acetylated lysine attached to aminoluciferin, along with a peptide sequence derived from p53. Upon deacetylation of the lysine by a sirtuin, the deacetylated peptide becomes a substrate for the developer reagent present in the reaction mixture. This yields free aminoluciferin that reacts with luciferase to give a luminescent signal that is stable and quantifiable.
CD38 positive Ramos cells were treated with a bispecific, bivalent three chain binding compound as depicted in FIG. 11, Panel D, or isotype control, in a 96 well plate (2×10^5 cells/well). After 24 h, the plate was centrifuged at 500 g for 5 minutes, and the cells were washed with 1×PBS followed by centrifugation. The cell pellet was resuspended in 50 μL of M-PER Mammalian Protein extraction reagent on ice. The cells were transferred to 1.5 mL tubes and homogenized for 30 seconds. The lysate was centrifuged at 14,000 rpm for 5 minutes at 4° C. The supernatant was incubated with 1:30 of anti-SIRT1 antibody (Abcam #32441) for 4 h on a rotator at 4° C. Protein A slurry (25 μL per 50 μL of lysate) was added and further incubated for 2 h at room temperature Immunoprecipitation (IP) buffer (Pierce #28379) was added (500 μL per tube) followed by centrifugation at 2500 g for 2 minutes. The wash step with IP buffer was repeated and 50 μL of IgG elution buffer (Pierce #21004) was added. After 5 minutes of incubation at room temperature, the eluate was centrifuged at 2500 g for 2 minutes. The supernatant was immediately neutralized with 1 M Tris (pH 9), 10 μL per 100 μL eluate. The eluate was used in the SIRT GLO™ assay (Promega #G6450) at a 1:1 ratio with the SIRT GLO™ reagent, per the manufacturer's instructions.
CD38 positive Ramos cells were treated with a bispecific, bivalent three chain binding compound (depicted in FIG. 11, Panel D) in combination with nicotinamide mononucleotide (NMN) at a concentration of 400 nM, or isotype control, in a 96 well plate (2×10^5 cells/well). After 24 h, the plate was centrifuged at 500 g for 5 minutes, and the cells were washed with 1×PBS followed by centrifugation. The cell pellet was resuspended in 50 μL of M-PER Mammalian Protein extraction reagent on ice. The cells were transferred to 1.5 mL tubes and homogenized for 30 seconds. The lysate was centrifuged at 14,000 rpm for 5 minutes at 4° C. The supernatant was incubated with 1:30 of anti-SIRT1 antibody (Abcam #32441) for 4 h on a rotator at 4° C. Protein A slurry (25 μL per 50 μL of lysate) was added and further incubated for 2 h at room temperature Immunoprecipitation (IP) buffer (Pierce #28379) was added (500 μL per tube) followed by centrifugation at 2500 g for 2 minutes. […]

CD4 T cells = assay: T-cell proliferation and IFNγ production in mixed lymphocyte reaction (MLR); format: cell-based
Description: Various binding compounds in accordance with embodiments of the invention were assessed for their ability to inhibit CD38 hydrolase activity without activating a mixed lymphocyte reaction (MLR). MLR occurs when MHC mismatched immune cells interact, triggering an immune response by T cell hyperproliferation and exacerbated cytokine release. […] The binding compounds were formulated at a concentration of 0.97 mg/mL in 20 mM Citrate, 100 mM NaCl, pH 6.2. Test substance was stored frozen at −80° C. until the day of use.
Analyses were performed to assess CD4 T cell proliferation and IFNγ production. The results are depicted in FIG. 20. […] The percentage of CD4 T cell proliferation is also shown in Panel C for a variety of other binding compounds.

Daudi cells [2] = assay: Direct apoptosis / direct cytotoxicity of Daudi cells; format: cell-based
Description: (§1) Induction of direct apoptosis was assessed by Annexin-V and 7-AAD staining using flow cytometry. Annexin-V is commonly used to detect apoptotic cells by its ability to bind to phosphatidylserine, a marker of apoptosis when it is present on the outer leaflet of the plasma membrane. 7-AAD binds to double stranded DNA that is taken up by dying or dead cells with compromised membranes. The CD38 positive cell lines used in this study were Daudi and Ramos cells.
(§2) A quad gate was used to distinguish between early apoptotic (Annexin-V+, 7-AAD−), late apoptotic (Annexin-V+, 7-AAD+), and viable cells (Annexin-V−, 7-AAD−). Concentration of binding compound was plotted against percent viability in Graphpad Prism 8. The resulting plot was fitted to a non-linear regression to determine EC50.

Daudi cells [3] = assay: NAD+ assay in Daudi cells; format: cell-based; settings: presence of NMN compared to absence of NMN, FIG. 19
Description: (§3) Studies were performed to assess whether blocking the ecto-NMNase activity of CD38 with the subject binding compounds causes an increase in the NMN-mediated increase in NAD+ within the CD38 expressing B cell lines Ramos and Daudi. The assay is based on the enzymatic cycling reaction in which NAD+ is reduced to NADH. NAD+ reacts with a colorimetric probe that produces a colored product. The intensity of the color is proportional to the NAD+ and NADH within a sample. Oxidized form is selectively destroyed by heating in basic solution, while reduced form is not stable in acidic solution.
(§4) Daudi or Ramos cells (2×10^5) were treated with antibody at a 5 nM concentration for 14 h. NAD+ was measured using an NAD+/NADH cycling assay kit (Cell Biolabs #MET-5014). Briefly, cell lysates were prepared in extraction buffer by homogenization, centrifugation at 4° C. at 14,000 rpm for 5 minutes, and deproteination through a 10 kDa spin filter. […] After 3 h, color development was read at 450 nm.
(§5) Daudi or Ramos cells (2×10^5) were treated with antibody at a 5 nM concentration in the presence or absence of 400 nM NMN for 14 h. NAD+ was measured using the NAD+/NADH cycling assay kit (Cell Biolabs #MET-5014). […] After 3 h, color development was read at 450 nm.

Ramos cells [4] = assay: NAD+ assay in Ramos cells; format: cell-based; settings: presence of NMN compared to absence of NMN, FIG. 19
Description: as §3, §4, §5

[5] = test system: CD38 negative cell lines (293-Freestyle, HL-60, K562, CHO); assay: Off target cell binding by flow cytometry (Example 10); settings: K562 and HL-60 cells, FIG. 23
Description: On target and off target cell binding of a bispecific, bivalent three chain binding compound as depicted in FIG. 11, Panel D, was assessed. The binding compound was formulated at a concentration of 0.97 mg/mL in 20 mM Citrate, 100 mM NaCl, pH 6.2. Test substance was stored frozen at −80° C. until the day of use. Binding to CD38 positive and CD38 negative cell lines was assessed using flow cytometry. The CD38 positive cell lines used were Daudi, Ramos, and a CHO cell line transfected to stably express CD38. The CD38 negative cell lines used were 293-Freestyle, HL-60, K562, and CHO.
The average MFI of unstained wells was set as the background signal. To calculate fold over background of each experimental sample, the experimental sample MFI was divided by the average background MFI.

Ramos cells [6] = assay: Direct apoptosis of Ramos cells; format: cell-based; settings: Annexin-V and 7-AAD staining, flow cytometry, FIG. 24
Description: as §1, §2

[7] = test system: Xeno-GvHD in NOD scid gamma (NSG) mice; assay: Xeno-GvHD model, human PBMCs in NSG mice; format: in vivo
Description: Xeno-GvHD was induced using 1.5 grays of radiation to facilitate colonization of human PBMCs in NOD scid gamma (NSG) mice. […] Survival was monitored until day 50. GvHD clinical score was determined mainly based on weight loss, posture, activity and fur texture. […] In contrast, the animals treated with PBMCs+PBS or PBMCs+mCD38 lost body weight quickly and were sacrificed before day 25 because of more than 20% weight loss. The survival, body weight, and clinical score data are shown in FIGS. 30, 31 and 32, respectively.

[8] = molecular target: T1, human CD38 expressed on CHO cells (Homo sapiens, UniProt P28907); assay: Cell-based CD38 hydrolase activity, UniAb mixtures, bivalent and tetravalent formats (FIGS. 7, 8, 12, 16); settings: tetravalent UniAbs with human IgG4 Fc region, FIG. 16; read-out: IC50, inhibition of hydrolase activity of human CD38 expressed on CHO cells
T1 construct: expressed in transfected cells; host or cells: CHO cells stably expressing human CD38
Description: After incubation, ε-NAD^+ (BioLog Cat. No. N010) was added to a final concentration of 150 μM. Production of a fluorescent product was measured at 1 hour (ex 300 nm/em 410 nm) using a Spectramax i3x plate reader (Molecular Devices). Hydrolase enzyme inhibition was assessed by comparing signal from UniAb™-treated wells to the percent of total enzymatic activity observed when CD38 protein was treated with an isotype control antibody (max).

NC(=O)c1ccc[n+]([C@@H]2O[C@H](COP(=O)([O-])O)[C@@H](O)[C@H]2O)c1 [NMN, nicotinamide mononucleotide, reference compound]
sirtuin activity, luminescence (in words) ([1]; NMN 400 nM, FIG. 28): did not result in an increase in sirtuin activity

Daratumumab: antibody specific for human CD38, approved in 2015 for Multiple Myeloma
percentage of CD4 T cell proliferation in MLR (in words) (CD4 T cells; FIG. 20, Panel A): did result in an increase | IFNγ production in MLR (in words) (CD4 T cells; compared to IgG4 istp control, FIG. 20, Panel B): caused an increase

Isatuximab: antibody against CD38 in clinical trials for Multiple Myeloma; VH SEQ ID NO: 30, VL SEQ ID NO: 31 [reference compound]
direct cytotoxicity of Daudi cells (in words) (Daudi cells [2]; FIG. 10): potently kill Daudi cells | direct apoptosis of Daudi cells (in words) (Daudi cells [2]; in 24 hours, stated with the NAD+ study): causes direct apoptosis | intracellular NAD+ levels (in words) (Daudi cells [3]): not Daudi | intracellular NAD+ levels (in words) (Ramos cells [4]): subtle difference in NAD+ increase

TNB-738: bispecific, bivalent three chain anti-human CD38 molecule, FIG. 11 Panel D, comprising F11A and F12A VH sequences
off target cell binding (in words) [5]: does not bind | direct apoptosis of Daudi cells (in words) (Daudi cells [2]; Annexin-V and 7-AAD staining, flow cytometry, FIG. 24): did not cause direct apoptosis | direct apoptosis of Ramos cells (in words) (Ramos cells [6]): did not cause direct apoptosis | intracellular NAD+ levels (in words) (Daudi cells [3]): remarkably increased the NAD+ levels | intracellular NAD+ levels (in words) (Ramos cells [4]): remarkably increased the NAD+ levels | sirtuin activity, luminescence (in words) ([1]; NMN 5 nM, 50 nM or 500 nM, FIG. 29): further increased in a dose-dependent manner by the presence of increasing concentrations of NMN | sirtuin activity, luminescence (in words) ([1]; NMN 400 nM, FIG. 28): further increased by the presence of NMN | sirtuin activity, luminescence (in words) ([1]; no NMN, FIG. 26): dose-dependent increase in sirtuin activity | prevention of GvHD (in words) ([7]; clinical score based on weight loss, posture, activity and fur texture): prevention of GvHD; also recorded: able to successfully prevent GvHD | survival ([7]; day 50 after PBMC injection, treatments twice weekly until day 18): 100%

B1: CD38F12A_2GS_CD38F11A: tetravalent bispecific UniAb, FIG. 11 Panel B format, distal VH CD38F12A, GS linker, proximal VH CD38F11A, human IgG4 Fc region (antibody)
heavy: GVQLVESGGGLVQPGGSLRLSCTASGFTFSSSWMSWVRQAPGKGLEWVANIKQDGSEKDYVDSAKGRFTISRDNAKNSLYLQMNNLRAEDTAVYYCARDRRGPFFHIWGQGTLVTVSSGGGGSQVQLVESGGGVVQPGRSLRLSCAASGFTFSSYGMHWVRQAPGKEREWVAVISDDGSNKYYADSVKGRFTISRDNSKNTLYLQMNSLRVEDTAVYYCAKDRGTMRVVVYDTLDIWGQGTLVTVSS
modifications: left off: a dimerising Fc or GST
IC50 [8]: 4.5 nM
